Data published in the NIST ThermoML archive (doi:10.1016/j.jct.2005.08.002).

Test: xn = mol fraction of the nth substance listed
Settings: 101 kPa, Liquid; for viscosity: Capillary tube (Ostwald / Ubbelohde) method; for speed of sound: Sing-around technique in a fixed-path interferometer; for mass density: Vibrating tube method

CC1CCCC1 [methylcyclopentane] + CCC(C)=O
Settings | mass density, 293.15 K [kg/m3] | mass density, 298.15 K [kg/m3] | mass density, 303.15 K [kg/m3] | speed of sound, 293.15 K [m/s] | speed of sound, 298.15 K [m/s] | speed of sound, 303.15 K [m/s] | viscosity, 293.15 K [mPa·s] | viscosity, 298.15 K [mPa·s] | viscosity, 303.15 K [mPa·s]
x1 = 0.048 | 800.42 | 795.21 | 789.96 | 1208 | 1187 | 1165 | 0.397 | 0.378 | 0.36
x1 = 0.0982 | 795.99 | 790.8 | 785.57 | 1203 | 1181 | 1160 | 0.396 | 0.376 | 0.358
x1 = 0.1942 | 787.99 | 782.84 | 777.64 | 1195 | 1173 | 1151 | 0.397 | 0.377 | 0.358
x1 = 0.2911 | 780.72 | 775.6 | 770.44 | 1188 | 1166 | 1144 | 0.402 | 0.383 | 0.364
x1 = 0.398 | 773.4 | 768.32 | 763.2 | 1183 | 1161 | 1139 | 0.408 | 0.386 | 0.367
x1 = 0.5036 | 766.98 | 761.95 | 756.87 | 1181 | 1158 | 1136 | 0.416 | 0.394 | 0.374
x1 = 0.6033 | 761.6 | 756.62 | 751.6 | 1180 | 1157 | 1135 | 0.427 | 0.404 | 0.383
x1 = 0.6993 | 757.02 | 752.08 | 747.11 | 1181 | 1158 | 1135 | 0.439 | 0.415 | 0.394
x1 = 0.8045 | 752.53 | 747.68 | 742.78 | 1184 | 1161 | 1138 | 0.455 | 0.431 | 0.409
x1 = 0.906 | 749.02 | 744.24 | 739.42 | 1189 | 1166 | 1143 | 0.475 | 0.448 | 0.425
x1 = 0.9517 | 747.8 | 743.03 | 738.24 | 1193 | 1169 | 1146 | 0.487 | 0.46 | 0.436
x1 = 1 | 746.64 | 741.94 | 737.21 | 1197 | 1174 | 1150 | 0.504 | 0.476 | 0.45

CC1CCCC1 [methylcyclopentane] + CCCC(C)=O
Settings | mass density, 293.15 K [kg/m3] | mass density, 298.15 K [kg/m3] | mass density, 303.15 K [kg/m3] | speed of sound, 293.15 K [m/s] | speed of sound, 298.15 K [m/s] | speed of sound, 303.15 K [m/s] | viscosity, 293.15 K [mPa·s] | viscosity, 298.15 K [mPa·s] | viscosity, 303.15 K [mPa·s]
x1 = 0.0493 | 802.59 | 797.76 | 792.9 | 1228 | 1207 | 1187 | 0.49 | 0.462 | 0.439
x1 = 0.0981 | 798.89 | 794.06 | 789.19 | 1224 | 1203 | 1182 | 0.485 | 0.459 | 0.434
x1 = 0.1993 | 791.61 | 786.76 | 781.89 | 1216 | 1194 | 1173 | 0.479 | 0.452 | 0.43
x1 = 0.3038 | 784.4 | 779.56 | 774.7 | 1207 | 1185 | 1164 | 0.473 | 0.449 | 0.425
x1 = 0.3972 | 778.23 | 773.38 | 768.51 | 1201 | 1179 | 1157 | 0.47 | 0.444 | 0.421
x1 = 0.5007 | 771.75 | 766.91 | 762.04 | 1196 | 1174 | 1152 | 0.469 | 0.444 | 0.42
x1 = 0.6069 | 765.58 | 760.74 | 755.87 | 1193 | 1171 | 1148 | 0.468 | 0.442 | 0.419
x1 = 0.6989 | 760.33 | 755.52 | 750.68 | 1191 | 1168 | 1146 | 0.47 | 0.444 | 0.422
x1 = 0.8052 | 754.83 | 750.05 | 745.24 | 1190 | 1168 | 1145 | 0.477 | 0.451 | 0.427
x1 = 0.9039 | 750.38 | 745.64 | 740.86 | 1193 | 1170 | 1147 | 0.487 | 0.458 | 0.433
x1 = 0.9508 | 748.6 | 743.88 | 739.12 | 1195 | 1172 | 1148 | 0.493 | 0.466 | 0.44
x1 = 1 | 746.64 | 741.94 | 737.21 | 1197 | 1174 | 1150 | 0.504 | 0.476 | 0.45

CC1CCCC1 [methylcyclopentane] + CC(C)=O
Settings | mass density, 293.15 K [kg/m3] | mass density, 298.15 K [kg/m3] | mass density, 303.15 K [kg/m3] | speed of sound, 293.15 K [m/s] | speed of sound, 298.15 K [m/s] | speed of sound, 303.15 K [m/s] | viscosity, 293.15 K [mPa·s] | viscosity, 298.15 K [mPa·s] | viscosity, 303.15 K [mPa·s]
x1 = 0.05 | 785.97 | 780.3 | 774.59 | 1177 | 1155 | 1132 | 0.323 | 0.308 | 0.294
x1 = 0.0985 | 781.33 | 775.71 | 770.04 | 1171 | 1148 | 1126 | 0.323 | 0.308 | 0.294
x1 = 0.2004 | 773.02 | 767.49 | 761.9 | 1162 | 1139 | 1116 | 0.333 | 0.317 | 0.302
x1 = 0.3009 | 766.13 | 760.68 | 755.18 | 1157 | 1134 | 1111 | 0.347 | 0.33 | 0.316
x1 = 0.4024 | 760.79 | 755.43 | 750.02 | 1156 | 1133 | 1110 | 0.361 | 0.344 | 0.328
x1 = 0.5029 | 756.32 | 751.06 | 745.74 | 1157 | 1134 | 1111 | 0.378 | 0.359 | 0.341
x1 = 0.6052 | 752.71 | 747.55 | 742.34 | 1161 | 1137 | 1114 | 0.396 | 0.375 | 0.355
x1 = 0.7112 | 749.82 | 744.77 | 739.67 | 1166 | 1143 | 1120 | 0.418 | 0.395 | 0.374
x1 = 0.8139 | 747.82 | 742.89 | 737.92 | 1174 | 1151 | 1127 | 0.438 | 0.415 | 0.393
x1 = 0.9084 | 746.75 | 741.94 | 737.09 | 1184 | 1161 | 1137 | 0.467 | 0.442 | 0.418
x1 = 0.954 | 746.58 | 741.83 | 737.04 | 1190 | 1167 | 1143 | 0.482 | 0.457 | 0.432
x1 = 1 | 746.64 | 741.94 | 737.21 | 1197 | 1174 | 1150 | 0.504 | 0.476 | 0.45
